What was measured:
D(1A) dopamine receptor = D(1A) dopamine receptor (Rattus norvegicus, UniProt P18901)
D(2) dopamine receptor = D(2) dopamine receptor (Rattus norvegicus, UniProt P61169)
[1] = molecular target: T1, Alpha-2C adrenergic receptor (Rattus norvegicus, UniProt P22086)
T1 sequence (P22086 whole entry): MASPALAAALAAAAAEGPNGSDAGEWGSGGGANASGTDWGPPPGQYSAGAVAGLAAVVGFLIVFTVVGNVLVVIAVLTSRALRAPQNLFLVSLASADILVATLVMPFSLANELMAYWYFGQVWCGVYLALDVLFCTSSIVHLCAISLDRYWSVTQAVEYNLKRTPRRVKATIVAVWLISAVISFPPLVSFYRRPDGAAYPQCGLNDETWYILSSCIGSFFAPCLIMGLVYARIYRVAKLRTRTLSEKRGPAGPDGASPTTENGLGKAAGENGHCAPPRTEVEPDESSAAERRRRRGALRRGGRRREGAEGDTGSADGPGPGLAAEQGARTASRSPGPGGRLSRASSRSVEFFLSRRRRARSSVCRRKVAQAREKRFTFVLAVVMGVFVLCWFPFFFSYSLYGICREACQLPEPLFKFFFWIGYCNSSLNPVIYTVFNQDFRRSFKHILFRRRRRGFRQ

[2] = molecular target: 5-hydroxytryptamine receptor 2A (Rattus norvegicus, UniProt P14842)
Chain of 5-hydroxytryptamine receptor 2A (P14842 whole entry): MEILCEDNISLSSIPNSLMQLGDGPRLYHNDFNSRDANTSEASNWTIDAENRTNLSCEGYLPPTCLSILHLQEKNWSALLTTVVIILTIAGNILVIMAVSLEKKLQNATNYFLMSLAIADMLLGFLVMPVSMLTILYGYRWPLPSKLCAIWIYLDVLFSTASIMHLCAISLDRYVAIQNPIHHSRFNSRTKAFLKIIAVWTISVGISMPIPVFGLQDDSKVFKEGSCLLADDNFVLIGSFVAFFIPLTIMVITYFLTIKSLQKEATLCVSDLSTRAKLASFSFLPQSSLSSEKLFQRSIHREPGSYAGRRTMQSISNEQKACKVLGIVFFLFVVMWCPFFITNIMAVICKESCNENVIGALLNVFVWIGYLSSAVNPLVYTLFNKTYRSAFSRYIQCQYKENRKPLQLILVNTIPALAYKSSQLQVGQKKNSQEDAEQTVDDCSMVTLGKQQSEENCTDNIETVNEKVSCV

[3] = molecular target: T2, 5-hydroxytryptamine receptor 2C (Sus scrofa, UniProt G7ZKZ7)
T2 sequence (G7ZKZ7 whole entry): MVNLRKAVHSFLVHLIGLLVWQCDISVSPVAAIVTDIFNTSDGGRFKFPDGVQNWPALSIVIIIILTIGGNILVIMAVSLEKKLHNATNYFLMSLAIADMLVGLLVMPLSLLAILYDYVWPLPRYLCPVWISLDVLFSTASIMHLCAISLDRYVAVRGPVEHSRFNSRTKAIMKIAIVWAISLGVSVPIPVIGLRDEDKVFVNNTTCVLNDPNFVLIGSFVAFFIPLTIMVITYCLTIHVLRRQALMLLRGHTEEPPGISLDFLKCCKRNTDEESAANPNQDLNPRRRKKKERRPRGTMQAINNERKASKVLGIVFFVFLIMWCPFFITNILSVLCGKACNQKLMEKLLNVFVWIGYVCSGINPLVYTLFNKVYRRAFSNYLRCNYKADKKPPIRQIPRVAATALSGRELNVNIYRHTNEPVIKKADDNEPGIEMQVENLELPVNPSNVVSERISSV

[4] = molecular target: 5-hydroxytryptamine receptor 1B (Rattus norvegicus, UniProt P28564)
Chain of 5-hydroxytryptamine receptor 1B (P28564 whole entry): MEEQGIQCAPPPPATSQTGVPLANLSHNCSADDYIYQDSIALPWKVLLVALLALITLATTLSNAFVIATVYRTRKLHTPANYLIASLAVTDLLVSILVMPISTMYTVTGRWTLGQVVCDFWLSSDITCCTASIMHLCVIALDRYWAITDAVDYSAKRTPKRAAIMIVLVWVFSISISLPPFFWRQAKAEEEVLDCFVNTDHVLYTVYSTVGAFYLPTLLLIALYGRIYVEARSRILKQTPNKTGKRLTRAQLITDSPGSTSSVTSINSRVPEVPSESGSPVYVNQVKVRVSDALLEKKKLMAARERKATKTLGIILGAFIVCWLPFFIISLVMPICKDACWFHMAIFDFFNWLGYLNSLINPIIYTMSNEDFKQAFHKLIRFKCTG

[5] = molecular target: T3, Alpha-1A adrenergic receptor (Rattus norvegicus, UniProt P43140)
T3 sequence (P43140 whole entry): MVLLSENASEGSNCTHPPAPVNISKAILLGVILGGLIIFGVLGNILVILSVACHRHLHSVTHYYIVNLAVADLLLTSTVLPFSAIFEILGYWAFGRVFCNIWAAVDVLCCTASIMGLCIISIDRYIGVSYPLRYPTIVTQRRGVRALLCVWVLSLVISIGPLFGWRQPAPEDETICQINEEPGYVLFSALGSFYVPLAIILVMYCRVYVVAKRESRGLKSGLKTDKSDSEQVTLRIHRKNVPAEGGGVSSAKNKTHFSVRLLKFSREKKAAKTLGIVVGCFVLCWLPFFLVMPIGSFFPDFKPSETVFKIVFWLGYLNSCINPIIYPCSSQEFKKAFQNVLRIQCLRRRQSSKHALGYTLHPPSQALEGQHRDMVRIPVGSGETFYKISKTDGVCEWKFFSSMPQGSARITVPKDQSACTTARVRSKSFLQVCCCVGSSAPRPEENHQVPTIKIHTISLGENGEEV

[6] = molecular target: 5-hydroxytryptamine 1D receptor (Bos taurus, UniProt Q8MI13)
Chain of 5-hydroxytryptamine 1D receptor (Q8MI13 whole entry): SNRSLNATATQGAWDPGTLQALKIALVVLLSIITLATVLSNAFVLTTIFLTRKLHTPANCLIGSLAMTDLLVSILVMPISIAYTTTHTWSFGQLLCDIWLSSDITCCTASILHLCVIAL

[7] = molecular target: Sodium channel protein type 10 subunit alpha (Rattus norvegicus, UniProt Q62968)
Chain of Sodium channel protein type 10 subunit alpha (Q62968 whole entry): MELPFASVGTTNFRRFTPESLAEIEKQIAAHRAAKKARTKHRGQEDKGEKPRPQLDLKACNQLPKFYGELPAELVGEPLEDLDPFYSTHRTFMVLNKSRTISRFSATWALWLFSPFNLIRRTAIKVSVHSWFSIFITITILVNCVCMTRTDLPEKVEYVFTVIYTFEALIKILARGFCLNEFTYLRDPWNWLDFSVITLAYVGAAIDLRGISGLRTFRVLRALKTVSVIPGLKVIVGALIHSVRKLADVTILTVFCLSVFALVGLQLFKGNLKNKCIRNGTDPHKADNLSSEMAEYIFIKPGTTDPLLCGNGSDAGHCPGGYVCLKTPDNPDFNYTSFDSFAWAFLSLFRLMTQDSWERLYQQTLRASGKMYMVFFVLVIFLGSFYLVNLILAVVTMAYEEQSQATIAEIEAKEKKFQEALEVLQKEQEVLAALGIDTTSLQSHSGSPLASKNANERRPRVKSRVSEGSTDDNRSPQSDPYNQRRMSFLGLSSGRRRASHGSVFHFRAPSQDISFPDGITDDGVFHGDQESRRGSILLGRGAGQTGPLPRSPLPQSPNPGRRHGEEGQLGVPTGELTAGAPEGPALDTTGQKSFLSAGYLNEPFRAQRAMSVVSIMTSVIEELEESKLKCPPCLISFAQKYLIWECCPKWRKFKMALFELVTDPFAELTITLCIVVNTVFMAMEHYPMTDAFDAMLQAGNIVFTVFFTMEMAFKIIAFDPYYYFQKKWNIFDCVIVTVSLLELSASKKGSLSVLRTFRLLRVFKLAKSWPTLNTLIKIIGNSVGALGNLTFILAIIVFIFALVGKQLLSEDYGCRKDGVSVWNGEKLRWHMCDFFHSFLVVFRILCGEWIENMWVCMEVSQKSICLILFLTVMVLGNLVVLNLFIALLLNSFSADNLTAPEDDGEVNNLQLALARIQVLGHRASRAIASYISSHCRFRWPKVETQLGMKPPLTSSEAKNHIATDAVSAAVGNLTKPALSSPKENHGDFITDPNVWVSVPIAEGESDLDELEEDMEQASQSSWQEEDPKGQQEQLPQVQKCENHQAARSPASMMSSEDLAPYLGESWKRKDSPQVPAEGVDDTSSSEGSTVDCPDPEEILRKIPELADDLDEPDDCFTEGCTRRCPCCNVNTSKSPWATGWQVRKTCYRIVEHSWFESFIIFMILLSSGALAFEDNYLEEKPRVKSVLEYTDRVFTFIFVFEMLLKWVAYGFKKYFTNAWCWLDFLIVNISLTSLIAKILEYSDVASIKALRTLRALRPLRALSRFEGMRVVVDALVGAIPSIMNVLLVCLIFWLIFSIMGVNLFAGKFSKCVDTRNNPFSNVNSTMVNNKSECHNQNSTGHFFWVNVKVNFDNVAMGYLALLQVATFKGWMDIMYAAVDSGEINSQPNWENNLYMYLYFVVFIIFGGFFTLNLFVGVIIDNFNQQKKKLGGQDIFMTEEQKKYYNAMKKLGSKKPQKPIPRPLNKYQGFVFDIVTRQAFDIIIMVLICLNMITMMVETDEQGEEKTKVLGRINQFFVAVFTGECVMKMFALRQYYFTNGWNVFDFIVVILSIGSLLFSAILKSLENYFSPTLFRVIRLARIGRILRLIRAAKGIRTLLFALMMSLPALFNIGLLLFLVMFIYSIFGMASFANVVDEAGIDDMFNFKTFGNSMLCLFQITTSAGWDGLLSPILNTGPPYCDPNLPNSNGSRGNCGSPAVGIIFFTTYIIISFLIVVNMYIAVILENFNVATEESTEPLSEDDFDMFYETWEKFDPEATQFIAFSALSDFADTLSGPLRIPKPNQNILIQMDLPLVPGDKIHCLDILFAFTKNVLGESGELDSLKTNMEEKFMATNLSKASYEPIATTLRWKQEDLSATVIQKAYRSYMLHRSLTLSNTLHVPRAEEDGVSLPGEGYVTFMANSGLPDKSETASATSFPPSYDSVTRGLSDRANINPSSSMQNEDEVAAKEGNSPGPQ

Histamine H1 receptor = Histamine H1 receptor (Rattus norvegicus, UniProt P31390)
Chain of Histamine H1 receptor (P31390 whole entry): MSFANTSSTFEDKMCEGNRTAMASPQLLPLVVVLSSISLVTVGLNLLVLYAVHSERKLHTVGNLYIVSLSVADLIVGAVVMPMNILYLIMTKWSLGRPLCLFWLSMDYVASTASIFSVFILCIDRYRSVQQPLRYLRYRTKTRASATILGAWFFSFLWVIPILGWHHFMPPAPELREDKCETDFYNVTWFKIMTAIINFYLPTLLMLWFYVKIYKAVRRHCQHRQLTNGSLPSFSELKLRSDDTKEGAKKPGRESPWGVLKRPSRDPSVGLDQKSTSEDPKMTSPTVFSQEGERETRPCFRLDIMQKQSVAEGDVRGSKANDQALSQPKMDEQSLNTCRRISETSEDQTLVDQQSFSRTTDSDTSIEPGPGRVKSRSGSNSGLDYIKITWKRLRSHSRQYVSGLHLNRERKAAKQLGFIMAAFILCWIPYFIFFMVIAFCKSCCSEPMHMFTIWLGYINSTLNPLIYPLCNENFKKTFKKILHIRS

Chain of D(2) dopamine receptor (P61169 whole entry): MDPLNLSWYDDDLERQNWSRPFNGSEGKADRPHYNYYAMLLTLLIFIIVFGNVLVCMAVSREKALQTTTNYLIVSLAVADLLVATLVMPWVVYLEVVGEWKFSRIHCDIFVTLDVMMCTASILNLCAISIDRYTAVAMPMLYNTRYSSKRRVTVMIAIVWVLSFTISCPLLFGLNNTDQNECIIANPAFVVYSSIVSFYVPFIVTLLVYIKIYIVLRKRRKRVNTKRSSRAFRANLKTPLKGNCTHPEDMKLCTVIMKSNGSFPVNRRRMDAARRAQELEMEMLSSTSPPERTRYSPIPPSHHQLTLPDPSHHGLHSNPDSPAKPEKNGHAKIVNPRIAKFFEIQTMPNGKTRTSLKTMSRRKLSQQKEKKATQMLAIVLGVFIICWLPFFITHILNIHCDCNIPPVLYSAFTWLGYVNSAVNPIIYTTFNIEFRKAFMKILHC
Chain of D(1A) dopamine receptor (P18901 whole entry): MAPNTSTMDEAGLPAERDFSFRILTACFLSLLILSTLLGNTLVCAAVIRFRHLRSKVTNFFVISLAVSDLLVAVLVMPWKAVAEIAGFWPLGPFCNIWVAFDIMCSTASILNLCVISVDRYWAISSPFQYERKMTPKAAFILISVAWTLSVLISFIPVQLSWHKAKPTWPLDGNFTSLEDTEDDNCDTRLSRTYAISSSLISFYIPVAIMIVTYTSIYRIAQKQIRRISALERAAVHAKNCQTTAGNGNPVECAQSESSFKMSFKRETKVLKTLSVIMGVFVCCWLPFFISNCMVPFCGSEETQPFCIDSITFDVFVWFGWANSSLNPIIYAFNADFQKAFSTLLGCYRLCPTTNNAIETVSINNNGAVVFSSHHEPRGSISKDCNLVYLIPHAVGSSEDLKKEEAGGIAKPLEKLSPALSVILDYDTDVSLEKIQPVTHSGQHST

Ki (D(1A) dopamine receptor): 9 µM
Ki (D(2) dopamine receptor): > 10 µM
Ki [1]: 1 µM
Ki [2]: 0.0058 µM
Ki [3]: 0.12 µM
Ki [4]: > 10 µM
Ki [5]: 3.4 µM
Ki [6]: > 10 µM
Ki [7]: > 10 µM
Ki (Histamine H1 receptor): 5 µM
SMILES: CN(C)CCON=C(C=Cc1ccc(O)cc1)c1ccccc1F [NSC_6438382]

Reference: BindingDB's records for PubMed 1501121 (Sanofi Recherche, 1992)
